system: J774.2; assay: Cytotoxicity tested against J774.2 cells.; type: functional; settings: Mus musculus, read-out: ED50 (the source's name)

Point of comparison: CC(=O)O[C@H]1C(=O)[C@@]2(C)[C@H]([C@H](OC(=O)c3ccccc3)[C@]3(O)C[C@H](OC(=O)[C@H](O)[C@@H](NC(=O)c4ccccc4)c4ccccc4)C(C)=C1C3(C)C)[C@]1(OC(C)=O)CO[C@@H]1C[C@@H]2O [PACLITAXEL], EC50 16 nM. Against it:
- CC(=O)O[C@@]12CO[C@@H]1C[C@@H](O)[C@@]1(C)C(=O)c3[se]cc4c3[C@@](C(C)(C)O)(C[C@@H]4OC(=O)[C@H](O)[C@@H](NC(=O)c3ccccc3)c3ccccc3)[C@@H](OC(=O)c3ccccc3)[C@H]21 — 56-fold higher, 900 nM
- CC(=O)O[C@H]1C(=O)[C@@]2(C)[C@H]([C@H](OC(=O)c3ccccc3)[C@]3(O)C[C@H](OC(=O)[C@H](O)[C@@H](NC(=O)c4ccccc4)c4ccccc4)C(C)=C1C3(C)C)[C@]1(OC(C)=O)CO[C@@H]1[C@@H]2O — 16-fold higher, 250 nM

From ChEMBL document CHEMBL1150983, “Synthesis of novel taxol analogs and evaluation of their biological activities” (1997)
